Results from patent US20240197695A1, “COMPOUND FOR PREVENTION OR TREATMENT OF KIDNEY DISEASE” (ONCOCROSS CO.,LTD, priority 2021, published 2024).
Like-named read-outs stand apart in the source and are kept apart here. Marks after values point to notes of the source that are not given here.

Tests used:
Format in all cases: in vivo, mice (C57BL/6)
[1] = tested on: diabetic nephrosis animal models; assay: Histopathological change (H&E) in liver, kidney, pancreas; conditions: for Kidney: Medullar apoptosis / Kidney: Medullar mineralization / Kidney: NHL / Kidney: bowman's capsule hyperplasia / Kidney: pappillary mineralization / Liver: Apoptosis / Liver: Cytoplasmic glycogen / Liver: Eosinophlic focus of cellular alteration / Liver: Mononuclear cell infiltrate / Liver: NHL / Pancrease: Apoptosis / Pancrease: NHL / Pancrease: islet degeneration / Pancrease: islet hypertrophy / Pancrease: islet, mononuclear cell infillitrate: count in group of 10 animals
Experimental: (§1) STZ (Sigma-aldrich, S0130, 40 mg/kg b.w., in 0.1 M citrate buffer pH 4.5) was intraperitoneally administered to 9-week-old male mice (C57BL/6) once/1 day for 5 days to perform a first disease induction. After 7 weeks of the first induction, a second induction was performed using the same method as the first induction. For 5 days of an STZ administration period for the first induction, 10% sucrose was administered as drinking water. In addition, after 14 days of the second administration, blood glucose levels were confirmed to confirm the induction rate, and the induced animals were separated into groups. Experimental substances (R)-4-{(R)-1-[7-(3,4,5-trimethoxy-phenyl)-[1,6] naphthyridin-5-yloxy]-ethyl}pyrrolidin-2-one (BI-1002494) and cromolyn (OC-101) were administered orally into the stomach at 10 mL/kg using an administration syringe (sonde) before 16:00 daily for 12 weeks at a frequency of 7 days/week at doses shown in Table 1 below, and dexamethasone was orally administered as a positive control substance.
At the end of the observation period, the mice in each group of Example 1 were confirmed to be dead, and the liver, kidney, and pancreas were extracted and fixed with 10% neutral buffered formalin (NBF) in at least 20 times the tissue volume. The fixed tissue was sectioned to a thickness of approximately 4 mm and then produced into a paraffin block through general tissue processing and embedding processes. Thereafter, the tissue was sectioned to a thickness of 4 μm using a rotary microtome, and then H&E staining was performed, and histopathological changes were observed.

[2] = Body weights of mice in diabetic nephrosis model
Experimental: as §1

[3] = tested on: diabetic nephrosis animal models; assay: Blood indoxyl sulfate by LC MS/MS; conditions: after observation period, fasted
Experimental: as §1
(§2) After the observation period for mice of each group in Example 1 was terminated, all surviving animals were fasted in the same manner as when measuring blood glucose levels, and then anesthetized by inhaling isoflurane, and blood was collected from the abdominal vena cava through laparotomy. After the blood collection was completed, the veins and arteries were cut under anesthesia and exsanguinated. The collected blood was left at room temperature for 30 minutes or more and then centrifuged at 3,000 rpm for 20 minutes. Thereafter, glucose, Blood urea nitrogen (BUN), and creatinine were analyzed using an automated blood biochemistry analyzer (Hitachi 3100, Hitachi Co. Ltd., Japan). Indoxyl sulfate (a substance that was mainly produced in the intestines to cause renal injury, and a substance that caused end-stage renal failure by advancing renal function damage in patients with renal failure during hemodialysis) was analyzed using LC MS/MS. In addition, blood insulin was analyzed according to a method represented by a commercial Mouse Insulin ELISA KIT (#AKRIN-011T, Sibayagi Co. Ltd., Japan).

[4] = tested on: diabetic nephrosis animal models; assay: Blood insulin (Mouse Insulin ELISA KIT) and HOMA-IR; conditions: for HOMA-IR, Mean / Insulin, Mean: after observation period, fasted
Experimental: as §1, §2

[5] = tested on: diabetic nephrosis animal models; conditions: for CRE, Mean / GLU, Mean / T-CHO, Mean: after observation period, fasted
Experimental: as §1, §2

[6] = administered group (12.5, 25, 50 mg/kg)
[7] = after induction of diabetic renal diseases

Compound: COc1cc(-c2cc3ncccc3c(O[C@H](C)[C@H]3CNC(=O)C3)n2)cc(OC)c1OC [BI-1002494, (R)-4-{(R)-1-[7-(3,4,5-trimethoxy-phenyl)-[1,6]naphthyridin-5-yloxy]-ethyl}pyrrolidin-2-one]
- Kidney: Medullar apoptosis ([1]; G4, 12.5 mg/kg oral): 3
- Kidney: Medullar mineralization ([1]; G4, 12.5 mg/kg oral): 0
- Kidney: NHL ([1]; G4, 12.5 mg/kg oral): 7
- Kidney: bowman's capsule hyperplasia ([1]; G4, 12.5 mg/kg oral): 0
- Kidney: pappillary mineralization ([1]; G4, 12.5 mg/kg oral): 0
- Liver: Apoptosis ([1]; G4, 12.5 mg/kg oral): 2
- Liver: Cytoplasmic glycogen ([1]; G4, 12.5 mg/kg oral): 1
- Liver: Eosinophlic focus of cellular alteration ([1]; G4, 12.5 mg/kg oral): 0
- Liver: Mononuclear cell infiltrate ([1]; G4, 12.5 mg/kg oral): 1
- Liver: NHL ([1]; G4, 12.5 mg/kg oral): 7
- Pancrease: Apoptosis ([1]; G4, 12.5 mg/kg oral): 1
- Pancrease: NHL ([1]; G4, 12.5 mg/kg oral): 5
- Pancrease: islet degeneration ([1]; G4, 12.5 mg/kg oral): 2
- Pancrease: islet hypertrophy ([1]; G4, 12.5 mg/kg oral): 1
- Pancrease: islet, mononuclear cell infillitrate ([1]; G4, 12.5 mg/kg oral): 1
- Kidney: Medullar apoptosis ([1]; G5, 25 mg/kg oral): 2
- Kidney: Medullar mineralization ([1]; G5, 25 mg/kg oral): 1
- Kidney: NHL ([1]; G5, 25 mg/kg oral): 7
- Kidney: bowman's capsule hyperplasia ([1]; G5, 25 mg/kg oral): 0
- Kidney: pappillary mineralization ([1]; G5, 25 mg/kg oral): 0
- Liver: Apoptosis ([1]; G5, 25 mg/kg oral): 3
- Liver: Cytoplasmic glycogen ([1]; G5, 25 mg/kg oral): 0
- Liver: Eosinophlic focus of cellular alteration ([1]; G5, 25 mg/kg oral): 0
- Liver: Mononuclear cell infiltrate ([1]; G5, 25 mg/kg oral): 2
- Liver: NHL ([1]; G5, 25 mg/kg oral): 7
- Pancrease: Apoptosis ([1]; G5, 25 mg/kg oral): 0
- Pancrease: NHL ([1]; G5, 25 mg/kg oral): 8
- Pancrease: islet degeneration ([1]; G5, 25 mg/kg oral): 1
- Pancrease: islet hypertrophy ([1]; G5, 25 mg/kg oral): 1
- Pancrease: islet, mononuclear cell infillitrate ([1]; G5, 25 mg/kg oral): 0
- Kidney: Medullar apoptosis ([1]; G6/G7, 50 mg/kg oral): 1
- Kidney: Medullar mineralization ([1]; G6/G7, 50 mg/kg oral): 2
- Kidney: NHL ([1]; G6/G7, 50 mg/kg oral): 7
- Kidney: bowman's capsule hyperplasia ([1]; G6/G7, 50 mg/kg oral): 0
- Kidney: pappillary mineralization ([1]; G6/G7, 50 mg/kg oral): 0
- Liver: Apoptosis ([1]; G6/G7, 50 mg/kg oral): 2
- Liver: Cytoplasmic glycogen ([1]; G6/G7, 50 mg/kg oral): 0
- Liver: Eosinophlic focus of cellular alteration ([1]; G6/G7, 50 mg/kg oral): 0
- Liver: Mononuclear cell infiltrate ([1]; G6/G7, 50 mg/kg oral): 1
- Liver: NHL ([1]; G6/G7, 50 mg/kg oral): 8
- Pancrease: Apoptosis ([1]; G6/G7, 50 mg/kg oral): 0
- Pancrease: NHL ([1]; G6/G7, 50 mg/kg oral): 7
- Pancrease: islet degeneration ([1]; G6/G7, 50 mg/kg oral): 1
- Pancrease: islet hypertrophy ([1]; G6/G7, 50 mg/kg oral): 2
- Pancrease: islet, mononuclear cell infillitrate ([1]; G6/G7, 50 mg/kg oral): 0
- Cytoplasmic glycogen in the liver [1, 6]: reduced in the liver
- Medullar apoptosis in the kidney [1, 6]: reduced in the kidney in a dose-dependent manner
- Body weight compared to the disease control group ([2]; 12.5 mg/kg administered group, after week 5 of administration): statistically significantly increased
- Body weight, Mean ([2]; 12.5 mg/kg/day oral, week 0): 24 g
- Body weight, Mean ([2]; 12.5 mg/kg/day oral, week 1): 23.7 g
- Body weight, Mean ([2]; 12.5 mg/kg/day oral, week 2): 23.8 g
- Body weight, Mean ([2]; 12.5 mg/kg/day oral, week 3): 24.1 g
- Body weight, Mean ([2]; 12.5 mg/kg/day oral, week 4): 24.3 g
- Body weight, Mean ([2]; 12.5 mg/kg/day oral, week 5): 24.2^#
- Body weight, Mean ([2]; 12.5 mg/kg/day oral, week 6): 24.4^#
- Body weight, Mean ([2]; 12.5 mg/kg/day oral, week 7): 24.3^#
- Body weight, Mean ([2]; 12.5 mg/kg/day oral, week 8): 24.2^#
- Body weight, Mean ([2]; 12.5 mg/kg/day oral, week 10): 23.8^#
- Body weight compared to the disease control group ([2]; 25 mg/kg administered group, after week 8): statistically significantly increased
- Body weight, Mean ([2]; 25 mg/kg/day oral, week 0): 23.8 g
- Body weight, Mean ([2]; 25 mg/kg/day oral, week 1): 23.5 g
- Body weight, Mean ([2]; 25 mg/kg/day oral, week 2): 23.7 g
- Body weight, Mean ([2]; 25 mg/kg/day oral, week 3): 23.9 g
- Body weight, Mean ([2]; 25 mg/kg/day oral, week 4): 23.9 g
- Body weight, Mean ([2]; 25 mg/kg/day oral, week 5): 24 g
- Body weight, Mean ([2]; 25 mg/kg/day oral, week 6): 23.9 g
- Body weight, Mean ([2]; 25 mg/kg/day oral, week 7): 24 g
- Body weight, Mean ([2]; 25 mg/kg/day oral, week 8): 24.0^#
- Body weight, Mean ([2]; 25 mg/kg/day oral, week 10): 23.7^#
- Body weight compared to the disease control group ([2]; 50 mg/kg administered group, after week 8): statistically significantly increased
- Body weight, Mean ([2]; 50 mg/kg/day oral, week 0): 23.9 g
- Body weight, Mean ([2]; 50 mg/kg/day oral, week 1): 23.6 g
- Body weight, Mean ([2]; 50 mg/kg/day oral, week 2): 23.8 g
- Body weight, Mean ([2]; 50 mg/kg/day oral, week 3): 23.8 g
- Body weight, Mean ([2]; 50 mg/kg/day oral, week 4): 23.8 g
- Body weight, Mean ([2]; 50 mg/kg/day oral, week 5): 23.9 g
- Body weight, Mean ([2]; 50 mg/kg/day oral, week 6): 23.9 g
- Body weight, Mean ([2]; 50 mg/kg/day oral, week 7): 24 g
- Body weight, Mean ([2]; 50 mg/kg/day oral, week 8): 23.9^#
- Body weight, Mean ([2]; 50 mg/kg/day oral, week 10): 23.7^#
- Indoxyl sulfate, Mean ([3]; 12.5 mg/kg/day oral): 2.2 µg/mL
- Indoxyl sulfate, Mean ([3]; 25 mg/kg/day oral): 2.2 µg/mL
- Indoxyl sulfate, Mean ([3]; 50 mg/kg/day oral): 1.9 µg/mL
- HOMA-IR, Mean ([4]; 12.5 mg/kg/day oral): 12.4
- Insulin, Mean ([4]; 12.5 mg/kg/day oral): 0.7 ng/mL
- HOMA-IR, Mean ([4]; 25 mg/kg/day oral): 8.7^#
- Insulin, Mean ([4]; 25 mg/kg/day oral): 0.5^# ng/ml
- HOMA-IR, Mean ([4]; 50 mg/kg/day oral): 6.9^#
- Insulin, Mean ([4]; 50 mg/kg/day oral): 0.5 ng/mL
- HOMA-IR compared with that of the disease control group ([4]; 25 and 50 mg/kg administered groups): statistically significantly reduced
- Insulin resistance (HOMA-IR), summary [4, 7]: decreased in a dose-dependent manner
- CRE, Mean ([5]; 12.5 mg/kg/day oral): 0.1 mg/dL
- GLU, Mean ([5]; 12.5 mg/kg/day oral): 317.1^# mg/dL
- T-CHO, Mean ([5]; 12.5 mg/kg/day oral): 141.6 mg/dL
- CRE, Mean ([5]; 25 mg/kg/day oral): 0.1 mg/dL
- GLU, Mean ([5]; 25 mg/kg/day oral): 280.0^# mg/dL
- T-CHO, Mean ([5]; 25 mg/kg/day oral): 125.0 mg/dL
- CRE, Mean ([5]; 50 mg/kg/day oral): 0.1 mg/dL
- GLU, Mean ([5]; 50 mg/kg/day oral): 213.6^# mg/dL
- T-CHO, Mean ([5]; 50 mg/kg/day oral): 138.7 mg/dL
- Glucose, summary [5, 7]: decreased in a dose-dependent manner
- GLU compared with disease control group ([5]; all administered groups (12.5, 25, 50 mg/kg)): statistically significantly reduced, and a clear dose dependence was observed
